Reference: patent US5300491A, “Treatment of protozoal infection” (priority 1992, dated 1994)
Converted amounts (≈) assume the structure as drawn. “And” between values parts separate entries of the source, which are not always exact repeats. Equal entries are not always repeated. Where two headings read alike, the source gives them in different places.

Experiments:
[1] = system: Trichomonas vaginalis; assay: Trichomonas vaginalis assay of other divalent metal salts of bacitracin (MIC); format: cell-based
Method: (§1) All isolates were treated with either bacitracin or zinc bacitracin.
(§2) Prior to being diluted with the medium, the bacitracins were initially solubilized in water to 250 mg/ml. The zinc salt was solubilized in acidified water (60 μl HC1/ml). Duplicate plates of each isolate were prepared. one set of plates was exposed to an aerobic environment; and, the second set was exposed to an anaerobic environment. An Oxoid HP 11 anaerobic gas chamber and BR 38 gas generating kit were used to produce the anaerobic environment.
The procedure of Example IV was repeated, substituting bacitracin salts of the following metals for zinc bacitracin: nickel, cadmium, cobalt, manganese, copper and iron. The MLCs of the bacitracin salts were out of range. However, the MICs indicate that, with the exception of ferrous bacitracin, complexation with a divalent metal salt enhanced the activity of bacitracin.

[2] = system: T. foetus; conditions: cited from earlier work; for side effects: in vivo
[3] = system: Trichomonas vaginalis; assay: Trichomonas vaginalis assay (MLC, aerobic and anaerobic); format: cell-based
Method: as §1, §2

[4] = system: Tritrichomonas gallinae; assay: Tritrichomonas gallinae assay (MLC); format: cell-based; conditions: isolate GH85; anaerobic
Method: A single T. gallinae isolate was collected and treated with bacitracin or zinc bacitracin in accordance with the procedure of Example IV. Duplicate plates of the isolate were prepared. one plate was exposed to an aerobic environment. The second plate was exposed to an anaerobic environment.

[5] = system: Giardia lamblia; format: cell-based; conditions: Portland isolate; anaerobic; 24 hours; two lines of values
Method: A Portland isolate of G. lamblia was treated with bacitracin and zinc bacitracin according to the procedure of Example IV. An Oxoid HP 11 anaerobic gas chamber and BR 38 gas generating kit were used to produce an anaerobic environment. […] The parasites were incubated in the presence of the treating reagent for 2 4 hours. The viability of the parasites was based on morphology and motility.

[6] = system: E. histolvtica; conditions: fifty South African patients; 2.4 g daily for 5 days; cited from earlier work

Nickel Bacitracin
MIC ([1]; T. vaginalis isolate 1910): 2500 µg/mL | MIC ([1]; T. vaginalis isolate UCH1): 1250 µg/mL

Cobalt Bacitracin
MIC ([1]; T. vaginalis isolate 1910): 1250 µg/mL | MIC ([1]; T. vaginalis isolate UCH1): 1250 µg/mL

Cc1ncc([N+](=O)[O-])n1C [dimetridazole]
side effects ([2]; iv): respiratory difficulty, ataxia and lung collapse | side effects ([2]; po): rumen stasis and anorexia | effectiveness ([2]; multiple oral doses): moderately effective | effectiveness ([2]; single intravenous administration): moderately effective

Cadmium Bacitracin
MIC ([1]; T. vaginalis isolate 1910): 150 µg/mL | MIC ([1]; T. vaginalis isolate UCH1): 310 µg/mL

Manganese Bacitracin
MIC ([1]; T. vaginalis isolate 1910): 1260 µg/mL | MIC ([1]; T. vaginalis isolate UCH1): 150 µg/mL

Cc1ncc([N+](=O)[O-])n1CCO [Metronidazole]
MLC ([3]; isolate 1031, metronidazole-sensitive, aerobic): 40 µg/mL (≈ 234 µM) | MLC ([3]; isolate 1031, metronidazole-sensitive, anaerobic): 4 µg/mL (≈ 23.4 µM) | MLC ([3]; isolate 1043, metronidazole-sensitive, aerobic): 20 µg/mL (≈ 117 µM) | MLC ([3]; isolate 1043, metronidazole-sensitive, anaerobic): < 1 µg/mL | MLC ([3]; isolate 1044, metronidazole-sensitive, aerobic): < 10 µg/mL | MLC ([3]; isolate 1044, metronidazole-sensitive, anaerobic): < 1 µg/mL | MLC ([3]; isolate 1064, metronidazole-sensitive, anaerobic): < 1 µg/mL | MLC ([3]; isolate 1065, metronidazole-sensitive, aerobic): < 10 µg/mL | MLC ([3]; isolate 1065, metronidazole-sensitive, anaerobic): < 1 µg/mL | MLC ([3]; isolate 1165, metronidazole-sensitive, aerobic): 40 µg/mL (≈ 234 µM) | MLC ([3]; isolate 1165, metronidazole-sensitive, anaerobic): < 1 µg/mL | MLC ([3]; isolate 1910, metronidazole-sensitive, aerobic): 40 µg/mL (≈ 234 µM) | MLC ([3]; isolate 1910, metronidazole-sensitive, anaerobic): 2 µg/mL (≈ 11.7 µM) | MLC ([3]; isolate 6950, metronidazole-sensitive, aerobic): 20 µg/mL (≈ 117 µM) | MLC ([3]; isolate 6950, metronidazole-sensitive, anaerobic): 2 µg/mL (≈ 11.7 µM) | MLC ([3]; isolate 89532.2, metronidazole-insensitive, aerobic): 200 µg/mL (≈ 1170 µM) | MLC ([3]; isolate 89532.2, metronidazole-insensitive, anaerobic): 2 µg/mL (≈ 11.7 µM) | MLC ([3]; isolate 90576, metronidazole-insensitive, aerobic): 80 µg/mL (≈ 467 µM) | MLC ([3]; isolate 90576, metronidazole-insensitive, anaerobic): 2 µg/mL (≈ 11.7 µM) | MLC ([3]; isolate CDC85, metronidazole-insensitive, aerobic): 200 µg/mL (≈ 1170 µM) | MLC ([3]; isolate CDC85, metronidazole-insensitive, anaerobic): 20 µg/mL (≈ 117 µM) | MLC ([3]; isolate IR78, metronidazole-insensitive, aerobic): 200 µg/mL (≈ 1170 µM) | MLC ([3]; isolate IR78, metronidazole-insensitive, anaerobic): 4 µg/mL (≈ 23.4 µM) | MLC ([3]; isolate PHLS289, metronidazole-insensitive, aerobic): 60 µg/mL (≈ 351 µM) | MLC ([3]; isolate PHLS289, metronidazole-insensitive, anaerobic): 8 µg/mL (≈ 46.7 µM) | MLC ([3]; isolate STH-1, metronidazole-insensitive, aerobic): 60 µg/mL (≈ 351 µM) | MLC ([3]; isolate STH-1, metronidazole-insensitive, anaerobic): 8 µg/mL (≈ 46.7 µM) | MLC ([3]; isolate UCH-1, metronidazole-sensitive, aerobic): 40 µg/mL (≈ 234 µM) | MLC ([3]; isolate UCH-1, metronidazole-sensitive, anaerobic): 4 µg/mL (≈ 23.4 µM) | MLC ([3]; isolate UCH-2, metronidazole-sensitive, aerobic): < 10 µg/mL | MLC ([3]; isolate UCH-2, metronidazole-sensitive, anaerobic): 2 µg/mL (≈ 11.7 µM) | MLC ([3]; isolate UCH-M1, metronidazole-sensitive, aerobic): 20 µg/mL (≈ 117 µM) | MLC ([3]; isolate UCH-M1, metronidazole-sensitive, anaerobic): 4 µg/mL (≈ 23.4 µM) | MLC ([3]; isolate UOB-1, metronidazole-sensitive, aerobic): 20 µg/mL (≈ 117 µM) | MLC ([3]; isolate UOB-1, metronidazole-sensitive, anaerobic): < 1 µg/mL | MLC [4]: 2 µg/mL (≈ 11.7 µM) | MLC (first of the two columns per drug) [5]: < 1 µg/mL | MLC (second of the two columns per drug) [5]: 2 µg/mL and < 1 µg/mL | treatment failure with persistent disease [6]: 55%

Ferrous Bacitracin
MIC ([1]; T. vaginalis isolate 1910): > 10000 µg/mL | MIC ([1]; T. vaginalis isolate UCH1): > 10000 µg/mL

Copper Bacitracin
MIC ([1]; T. vaginalis isolate 1910): 1250 µg/mL | MIC ([1]; T. vaginalis isolate UCH1): 2500 µg/mL
